From article PMC9101373, “Design of DNA Intercalators Based on 4-Carboranyl-1,8-Naphthalimides: Investigation of Their DNA-Binding Ability and Anticancer Activity” (International Journal of Molecular Sciences, 2022)

Legend:
[1] = system: HepG2 cells; experiment: Cell migration inhibition assay (xCELLigence, CIM plates); format: cell-based, human; settings: 24 h pre-incubation at one-fourth of IC50
Protocol: By using the xCELLigence platform, we evaluated migration potential of HepG2 cells after the administration of compounds. We incubated the cells with compounds 54–61 at the concentration corresponding to one-fourth of the IC50 value for 24 h before the analysis, and the cells were then seeded on a CIM plate. Impedance-based cell index (CI) of HepG2 cells was measured every 30 min for 72 h. […] The most significant changes were observed within the first 24 h (Figure 3A). Thus, to obtain more insight into the altered migration profile caused by the analyzed compounds, we additionally calculated the slope representing the rate of change of the cell index within the first 24 h.
Transwell cell migration experiments were performed using xCELLigence RTCA Analyzer (Roche) in Cell Invasion and Migration (CIM) plates (ACEA Biosciences, San Diego, CA, USA). Each well consisted of an upper and a lower chamber separated by a microporous polyethylene terephthalate (PET) membrane containing randomly distributed 8 μm-pores. Prior to the migration assay, HepG2 cells (15 × 10^3) were seeded onto 48-well plates containing the growth medium (EMEM) and incubated until 70–80% confluency and incubated at 37 °C in a humidified atmosphere containing 5% CO2. Subsequently, the cells were treated for 24 h with the tested compounds at the final concentration corresponding to the one-fourth of IC50 value. Next, 160 μL of complete growth medium (supplemented with 10% FBS) was added to the lower chamber and 50 μL of serum-free growth medium to the upper chambers of CIM plate. The plates were incubated at 37 °C and 5% CO2 saturation for 1 h prior to insertion into the xCELLigence platform. To initiate a transwell migration experiment, cells were detached, resuspended in the serum-free growth medium, and seeded in the upper chamber at a density of 1 × 10^4 cells in 100 μL per well, previously treated with the compounds. The impedance of the microelectrode array was monitored and converted to the cell index (CI). Normalization values were recorded using the RTCA Software 1.2.1. […]
Figure 3 Real-time migration potential of HepG2 cells after 24 h administration of compounds 54–61. The migration potential of the cells was monitored using the xCELLigence system. HepG2 cells were incubated with the analyzed compounds for 24 h before the analysis at the concentration corresponding to one-fourth of the IC50 value. The impedance (cell index values) was measured every 30 min for the next 72 h. To eliminate the influence of the solvent, DMSO was added to the cells in a volume that corresponded to the highest compound concentration (A). The slope parameter represents the rate of changes in CI values of HepG2 cells within the first 24 h (B). […]

[2] = system: HepG2 cells; experiment: Cell cycle analysis by flow cytometry (PI staining); format: cell-based, human; settings: HepG2, 24 h at IC50; for cells in G2M phase: control 11.5%
Protocol: To reveal the mechanism underlying the inhibitory effect of the obtained compounds on cellular viability, we examined cell cycle regulation. For this purpose, HepG2 cells were exposed to compounds 54–61 (54 (5.5 µM), 55 (3.4 µM), 56 (12 µM), 57 (3.1 µM), 58 (3.9 µM), 59 (5.4 µM), 60 (31 µM), and 61 (4.8 µM)). The chosen concentration of each of these compounds corresponded to their total IC50 value.
After exposure, HepG2 cells were examined by flow cytometry, and their DNA content was measured by PI staining. […] Compounds 54–59 caused arrest in the G1/G0 phase since we observed a higher number of cells in that phase as compared to control (Figure 4 and Figure S297, ESI). […] Compounds 60 and 61 arrested cell cycle in the G2M phase, where the accumulation of cells was observed (>18% vs. 11.5% in control cells) (Figure 4 and Figure S297, ESI). In comparison, mitonafide and pinafide induced cell cycle arrest at the S and G2M phases, respectively. […] In contrast, 1,8-naphthalimide products with carborane modification at position 3 caused cell cycle arrest at the G2M phase, similar to pinafide and compounds 60 and 61 from this study.
HepG2 (5 × 10^5) cells were seeded onto 6-well cell culture plates and incubated for 24 h in a fully supplemented EMEM medium (Corning®) with addition of the analyzed compounds at a concentration corresponding to their total IC50 values. DNA content was determined by flow cytometry with PI (Sigma-Aldrich, Steinheim, Germany) staining. After incubation, the cells were trypsinized and washed twice with PBS (1 mL). In the next step, the cells were fixed with an ice-cold 80% ethanol. After 1 h incubation at 4 °C, the cells were stored at −20 °C for further analysis. After double wash with PBS, the fixed cells were stained with PI (50 μg/mL) with RNAse A (100 μg/mL) for 30 min at 37 °C in the dark. PI fluorescence was measured by FACSCalibur (Becton Dickinson), and data were analyzed by FlowJo software. […]

Substance	effect on migration potential of HepG2 cells (cell index, slope in first 24 h) [1]	G0/G1 cell fraction ([2]; control 60.1%)	cells in G2M phase [2]
N-[2-(Pyrrolidin-1-yl)ethyl]-4-[(2-(2-(1,7-dicarba-closo-dodecaborane-1-yl)-ethylamino)ethyl)amino]-1,8-naphthalimide [Compound 57]	influenced the migratory activity most		
N-[2-(Dimethylamino)ethyl]-4-[(6-(2-(1,2-dicarba-closo-dodecaborane-1-yl)-ethylamino)hexyl)amino]-1,8-naphthalimide [Compound 58]		70.4%	
N-[2-(Pyrrolidin-1-yl)ethyl]-4-[(2-(2-(1,2-dicarba-closo-dodecaborane-1-yl)-ethylamino)ethyl)amino]-1,8-naphthalimide [Compound 56]	influenced the migratory activity most		
N-[2-N-Pyrrolidinyl)ethyl]-4-[(6-(2-(1,2-dicarba-closo-dodecaborane-1-yl)-ethylamino)hexyl)amino]-1,8-naphthalimide [Compound 60]	influenced the migratory activity most		> 18%
N-[2-N-Pyrrolidinyl)ethyl]-4-[(6-(2-(1,7-dicarba-closo-dodecaborane-1-yl)-ethylamino)hexyl)amino]-1,8-naphthalimide [Compound 61]	highest impairment		> 18%
